Reference: patent US8097620B2, “Diazaquinolones that inhibit prolyl hydroxylase activity” (Amgen Inc., priority 2007, dated 2012)

Biological target: HIF PHD2 (Homo sapiens, UniProt Q9GZT9)
Experiment: PHD2 inhibition assay (TR-FRET, VCB-Eu detection of hydroxylated P564-HIF1α peptide)
Assay type: biochemical
Conditions: 2 nM PHD2, 100 nM P564-HIF1α peptide, 0.25 μM 2-oxoglutarate, 100 μM FeCl2, 2 mM ascorbic acid, pH 6
Protocol: Inhibition of HIF PHD2 activity was quantified utilizing the TR-FRET technology. HIF PHD2 catalyzes a hydroxyl modification on the proline residue of the P564-HIF1α peptide substrate (Biotin-[…] (SEQ ID NO: 7)) resulting in recognition and binding of the europylated Von Hippel-Lindau protein (pVHL), elongin B and elongin C heterotrimeric (VCB-Eu) complex.
The PHD2 inhibition assay was executed by addition of freshly dissolved FeCl2 to 178.57 μM (100 μM final concentration) in PHD2 Reaction Buffer containing 30 mM MES, pH 6, 10 mM NaCl, 0.25% Brij-35, 0.01% BSA, and 1% DMSO. 28 μL of the iron solution and 2 μL of inhibitor compounds serially diluted in 100% DMSO (5% DMSO final) were added to black polypropylene 96-well microtiter plates. To that, 10 μL of 10 nM PHD2 (2 nM final) was added to all wells of the plate except for the 8 wells of column 12 (LO control), and allowed to incubate at room temperature on the shaker for one hour. Column 6 was the HI control containing PHD2 enzyme and 5% DMSO vehicle, but no inhibitor compound. To initiate the PHD2 enzymatic reaction, 10 μL of a solution containing 500 nM P564-HIF1α peptide (100 nM final), 10 mM ascorbic acid (2 mM final), and 1.25 μM 2-oxoglutarate (α-ketoglutarate; 0.25 μM final) in PHD2 Reaction Buffer was added to all wells of the plate and allowed to incubate on the shaker at room temperature for one hour.
The reaction was terminated by addition of 25 μL TR-FRET Buffer (50 mM TRIS-HCl, pH 9, 100 mM NaCl, 0.05% BSA, and 0.5% Tween-20) containing 150 mM succinate (product inhibitor; 50 mM final), 75 nM streptavidin-APC (25 nM final), and 7.5 nM VCB-Eu (2.5 nM final). The TR-FRET detection reagents were placed on a shaker for 1 hour to reach binding equilibrium before reading on the Discovery platform (PerkinElmer). Europium is excited at 315 nm and phosphoresces at 615 nm with a large Stoke's shift. APC, in turn, emits at 655 nm upon excitation at 615 nm. The TR-FRET signal is measured as the ratio of the APC 655 nm signal divided by the internal europium reference 615 nm emission signal.
The POC (percentage of control) was determined by comparing the signal from hydroxylated peptide substrate in the enzyme reaction containing inhibitor compound with that from PHD2 enzyme with DMSO vehicle alone (HI control), and no enzyme (LO control). POC was calculated using the formula: % control (POC)=(cpd−average LO)/(average HI−average LO)*100. Data (consisting of POC and inhibitor concentration in μM) was fitted to a 4-parameter equation (y=A+((B−A)/(1+((x/C)^D))), where A is the minimum y (POC) value, B is the maximum y (POC), C is the x (cpd concentration) at the point of inflection and D is the slope factor) using a Levenburg-Marquardt non-linear regression algorithm.

Chain of HIF PHD2 (Q9GZT9 whole entry): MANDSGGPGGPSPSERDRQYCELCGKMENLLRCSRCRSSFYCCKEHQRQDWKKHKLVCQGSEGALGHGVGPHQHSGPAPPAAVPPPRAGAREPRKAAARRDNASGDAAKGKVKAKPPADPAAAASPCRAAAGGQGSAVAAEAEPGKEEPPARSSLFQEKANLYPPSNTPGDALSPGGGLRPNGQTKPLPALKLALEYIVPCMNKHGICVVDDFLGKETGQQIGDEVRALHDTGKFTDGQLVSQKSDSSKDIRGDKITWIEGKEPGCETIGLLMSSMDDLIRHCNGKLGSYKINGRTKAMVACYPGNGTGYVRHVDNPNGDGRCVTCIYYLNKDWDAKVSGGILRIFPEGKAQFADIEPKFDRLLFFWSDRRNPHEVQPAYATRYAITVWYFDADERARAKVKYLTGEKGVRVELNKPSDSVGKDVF

SMILES	IC50 [nM]
Cn1c(=O)c(C(=O)NCC(=O)O)c(O)c2cc(Cl)nnc21 [Example 1, 2-(3-chloro-5-hydroxy-8-methyl-7-oxo-7,8-dihydropyrido[2,3-c]pyridazine-6-carboxamido)acetic acid]	24
Cn1c(=O)c(C(=O)NCC(=O)O)c(O)c2cc(-c3cccs3)nnc21 [Example 3, 2-(5-hydroxy-8-methyl-7-oxo-3-(thiophen-2-yl)-7,8-dihydropyrido[2,3-c]pyridazine-6-carboxamido)acetic acid]	22
Cn1c(=O)c(C(=O)NCC(=O)O)c(O)c2cc(C3=CCCC3)nnc21 [Example 4, 2-(3-cyclopentenyl-5-hydroxy-8-methyl-7-oxo-7,8-dihydropyrido[2,3-c]pyridazine-6-carboxamido)acetic acid]	17
Cn1c(=O)c(C(=O)NCC(=O)O)c(O)c2cc(C3CCCC3)nnc21 [Example 5, 2-(3-cyclopentyl-5-hydroxy-8-methyl-7-oxo-7,8-dihydropyrido[2,3-c]pyridazine-6-carboxamido)acetic acid]	8.8
Cn1c(=O)c(C(=O)NCC(=O)O)c(O)c2cc(C3=CCCCC3)nnc21 [Example 6, 2-(3-cyclohexenyl-5-hydroxy-8-methyl-7-oxo-7,8-dihydropyrido[2,3-c]pyridazine-6-carboxamido)acetic acid]	16
CC(C)Oc1cccc(-c2cc3c(O)c(C(=O)NCC(=O)O)c(=O)n(C)c3nn2)c1 [Example 7, 2-(5-hydroxy-3-(3-isopropoxyphenyl)-8-methyl-7-oxo-7,8-dihydropyrido[2,3-c]pyridazine-6-carboxamido)acetic acid]	26
CC(C)Oc1ccccc1-c1cc2c(O)c(C(=O)NCC(=O)O)c(=O)n(C)c2nn1 [Example 9, 2-(5-hydroxy-3-(2-isopropoxyphenyl)-8-methyl-7-oxo-7,8-dihydropyrido[2,3-c]pyridazine-6-carboxamido)acetic acid]	14
Cn1c(=O)c(C(=O)NCC(=O)O)c(O)c2cnc(N3CCCCC3)nc21 [Example 11, 2-(5-hydroxy-8-methyl-7-oxo-2-(piperidin-1-yl)-7,8-dihydropyrido[2,3-d]pyrimidine-6-carboxamido)acetic acid]	16
Cn1c(=O)c(C(=O)NCC(=O)O)c(O)c2cnc(N3CCOCC3)nc21 [Example 13, 2-(5-hydroxy-8-methyl-2-morpholino-7-oxo-7,8-dihydropyrido[2,3-d]pyrimidine-6-carboxamido)acetic acid]	240
Cn1c(=O)c(C(=O)NCC(=O)O)c(O)c2cnc(N3CCCC3)nc21 [Example 15, 2-(5-hydroxy-8-methyl-7-oxo-2-(pyrrolidin-1-yl)-7,8-dihydropyrido[2,3-d]pyrimidine-6-carboxamido)acetic acid]	7.35
CC1CCCCN1c1ncc2c(O)c(C(=O)NCC(=O)O)c(=O)n(C)c2n1 (centres unmarked) [Example 16, 2-(5-hydroxy-8-methyl-2-(2-methylpiperidin-1-yl)-7-oxo-7,8-dihydropyrido[2,3-d]pyrimidine-6-carboxamido)acetic acid]	52.5
CCC1CCCCN1c1ncc2c(O)c(C(=O)NCC(=O)O)c(=O)n(C)c2n1 (centres unmarked) [Example 19, 2-(2-(2-ethylpiperidin-1-yl)-5-hydroxy-8-methyl-7-oxo-7,8-dihydropyrido[2,3-d]pyrimidine-6-carboxamido)acetic acid]	71
CCC1CCC(C)N(c2ncc3c(O)c(C(=O)NCC(=O)O)c(=O)n(C)c3n2)C1 (centres unmarked) [Example 20, 2-(2-(5-ethyl-2-methylpiperidin-1-yl)-5-hydroxy-8-methyl-7-oxo-7,8-dihydropyrido[2,3-d]pyrimidine-6-carboxamido)acetic acid]	175
Cn1c(=O)c(C(=O)NCC(=O)O)c(O)c2cnc(N3CCCC4CCCCC43)nc21 (centres unmarked) [Example 21, 2-(5-hydroxy-8-methyl-2-(octahydroquinolin-1(2H)-yl)-7-oxo-7,8-dihydropyrido[2,3-d]pyrimidine-6-carboxamido)acetic acid]	152

Now from value to compound:

IC50 [nM]	SMILES
17	Cn1c(=O)c(C(=O)NCC(=O)O)c(O)c2cc(-c3ccccc3)nnc21 [Example 2, 2-(5-hydroxy-8-methyl-7-oxo-3-phenyl-7,8-dihydropyrido[2,3-c]pyridazine-6-carboxamido)acetic acid]
21	CC(C)Oc1ccc(-c2cc3c(O)c(C(=O)NCC(=O)O)c(=O)n(C)c3nn2)cc1 [Example 8, 2-(5-hydroxy-3-(4-isopropoxyphenyl)-8-methyl-7-oxo-7,8-dihydropyrido[2,3-c]pyridazine-6-carboxamido)acetic acid]
25	CSc1ncc2c(O)c(C(=O)NCC(=O)O)c(=O)n(C)c2n1 [Example 10, 2-(5-hydroxy-8-methyl-2-(methylthio)-7-oxo-7,8-dihydropyrido[2,3-d]pyrimidine-6-carboxamido)acetic acid]
18	COc1ncc2c(O)c(C(=O)NCC(=O)O)c(=O)n(C)c2n1 [Example 12, 2-(5-hydroxy-2-methoxy-8-methyl-7-oxo-7,8-dihydropyrido[2,3-d]pyrimidine-6-carboxamido)acetic acid]
6.9	Cn1c(=O)c(C(=O)NCC(=O)O)c(O)c2cnc(C(F)(F)F)nc21 [Example 14, 2-(5-hydroxy-8-methyl-7-oxo-2-(trifluoromethyl)-7,8-dihydropyrido[2,3-d]pyrimidine-6-carboxamido)acetic acid]
8.8	Cn1c(=O)c(C(=O)NCC(=O)O)c(O)c2ncc(-c3ccccc3)nc21 [Example 18, 2-(8-hydroxy-5-methyl-6-oxo-3-phenyl-5,6-dihydropyrido[3,2-b]pyrazine-7-carboxamido)acetic acid]
2.9	Cn1c(=O)c(C(=O)NCC(=O)O)c(O)c2cnc(-c3cccc(F)c3)nc21 [Example 22, 2-(2-(3-fluorophenyl)-5-hydroxy-8-methyl-7-oxo-7,8-dihydropyrido[2,3-d]pyrimidine-6-carboxamido)acetic acid]
12	Cn1c(=O)c(C(=O)NCC(=O)O)c(O)c2cnc(C#CC3CC3)nc21 [Example 23, 2-(2-(2-cyclopropylethynyl)-5-hydroxy-8-methyl-7-oxo-7,8-dihydropyrido[2,3-d]pyrimidine-6-carboxamido)acetic acid]
3.9	Cn1c(=O)c(C(=O)NCC(=O)O)c(O)c2cnc(C3CC3)nc21 [Example 24, 2-(2-cyclopropyl-5-hydroxy-8-methyl-7-oxo-7,8-dihydropyrido[2,3-d]pyrimidine-6-carboxamido)acetic acid]
4.3	Cn1c(=O)c(C(=O)NCC(=O)O)c(O)c2cnc(-c3ccccc3)nc21 [Example 25, 2-(5-hydroxy-8-methyl-7-oxo-2-phenyl-7,8-dihydropyrido[2,3-d]pyrimidine-6-carboxamido)acetic acid]
1.5	Cn1c(=O)c(C(=O)NCC(=O)O)c(O)c2cnc(-c3ccccc3F)nc21 [Example 26, 2-(2-(2-fluorophenyl)-5-hydroxy-8-methyl-7-oxo-7,8-dihydropyrido[2,3-d]pyrimidine-6-carboxamido)acetic acid]
2.3	Cn1c(=O)c(C(=O)NCC(=O)O)c(O)c2cnc(-c3ccc(F)cc3)nc21 [Example 27, 2-(2-(4-fluorophenyl)-5-hydroxy-8-methyl-7-oxo-7,8-dihydropyrido[2,3-d]pyrimidine-6-carboxamido)acetic acid]
